In one data set the target is phosphorylated MEK1 (Homo sapiens, UniProt Q02750). The experiment in a line: MEK1 binding assay (HTRF, tracer displacement). Conditions: for inhibition at 2 µM: read-out: % binding (2 µM); for inhibition at 20 µM: read-out: % binding (20 µM). The protocol:
The homogeneous time resolved fluorescence (HTRF) assay was performed on a Proxiplate-384 F plus solid back plate (Perkin Elmer, Waltham, MA. USA) with 5 nM GST tagged phosphorylated MEK1 (GST-MEK1), 2 nM europium-labeled anti-GST antibody (Eu-anti-GST), 20 nM kinase tracer 236 and test compound at a variety of concentrations. In the reaction mixture, GST-MEK1 forms a complex with the Eu-anti-GST and the tracer. Excitation of europium (the donor) using a 340-nm excitation filter results in energy transfer to the fluorophore of the tracer. This energy transfer is detected by an increase in the fluorescence emission of the tracer at 665 nm and a decrease in the fluorescence emission of europium at 615 nm. The FRET ratio was calculated by dividing the emission signal at 665 nm by the emission signal at 615 nm. A competitor compound such as a MEK inhibitor replaces the tracer from the complex and decreases the FRET ratio accordingly. The plate was incubated in dark at room temperature for 30 min before measuring the fluorescent emission of each well at 665 and 615 nm using a 340-nm excitation filter, 100-µs delay time, and 200-µs integration time, on a PHERAStar plate reader (BMG Labtech, Durham, NC, USA). […] Data shown as %Inhibition normalized to AZD6244 at 100 µM.

This note sets out measurements from article PMC6269873, “Substituted 3-Benzylcoumarins as Allosteric MEK1 Inhibitors: Design, Synthesis and Biological Evaluation as Antiviral Agents” (Molecules, 2013).

As usually defined, the IC50 is the point on the concentration scale where inhibition reaches its midpoint. A word on the melting point: it is the temperature of the solid-liquid transition.

Molecules are shown by their SMILES.

phosphorylated MEK1, sequence (Q02750 whole entry): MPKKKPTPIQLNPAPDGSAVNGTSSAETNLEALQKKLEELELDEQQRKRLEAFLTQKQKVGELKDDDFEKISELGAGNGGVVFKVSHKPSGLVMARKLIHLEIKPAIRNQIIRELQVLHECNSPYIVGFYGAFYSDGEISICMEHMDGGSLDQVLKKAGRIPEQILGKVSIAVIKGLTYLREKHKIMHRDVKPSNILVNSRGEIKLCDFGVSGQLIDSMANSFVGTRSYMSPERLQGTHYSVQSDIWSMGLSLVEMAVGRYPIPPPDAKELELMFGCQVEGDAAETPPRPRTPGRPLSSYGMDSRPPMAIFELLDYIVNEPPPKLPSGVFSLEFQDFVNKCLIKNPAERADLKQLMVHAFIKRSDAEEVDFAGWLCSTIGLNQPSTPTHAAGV

`CCCC(=O)Oc1ccc2c(CCC)c(Cc3ccc(F)cc3)c(=O)oc2c1` [Compound 47, 3-(4-Fluorobenzyl)-2-oxo-4-propyl-2H-chromen-7-yl butyrate] registered a melting point of 88 to 90 °C. For the same molecule, the IC50 on phosphorylated MEK1 (HTRF binding to GST tagged phosphorylated MEK1, read-out: IC50) was 944 nM. In addition, on phosphorylated MEK1, the inhibition at 2 µM is 57% and the inhibition at 20 µM worked out at 70.3%.

Consider `CCCCC(=O)Oc1ccc2c(C)c(Cc3ccccc3)c(=O)oc2c1` [Compound 48, 3-Benzyl-4-methyl-2-oxo-2H-chromen-7-yl pentanoate], for which the melting point fell in the range of 110 to 111 °C. Also, at phosphorylated MEK1, the inhibition at 2 µM came out at 18.8% and the inhibition at 20 µM is 21.2%.

Turning to `CCCCC(=O)Oc1cc2oc(=O)c(Cc3ccccc3)c(C)c2cc1Cl` [Compound 49, 3-Benzyl-6-chloro-4-methyl-2-oxo-2H-chromen-7-yl pentanoate], the melting point lay within 108 to 109 °C. At phosphorylated MEK1, the inhibition at 2 µM was 8.15% and the inhibition at 20 µM stood at 20.3%.

The molecule `CCCCC(=O)Oc1ccc2c(CC)c(Cc3ccccc3)c(=O)oc2c1` [Compound 50, 3-Benzyl-4-ethyl-2-oxo-2H-chromen-7-yl pentanoate] came in with a melting point of 72 to 73 °C. For the same molecule, on phosphorylated MEK1, the inhibition at 2 µM is 37.2% and the inhibition at 20 µM was determined as 43.2%.

`CCCCC(=O)Oc1ccc2c(CCC)c(Cc3ccccc3)c(=O)oc2c1` [Compound 51, 3-Benzyl-2-oxo-4-propyl-2H-chromen-7-yl pentanoate] registered a melting point of 78 to 79 °C. For the same molecule, on phosphorylated MEK1, the inhibition at 2 µM was determined as 29.5% and the inhibition at 20 µM is 42.5%.

In turn, `CCCCC(=O)Oc1ccc2c(CC)c(Cc3ccc(F)cc3)c(=O)oc2c1` [Compound 52, 4-Ethyl-3-(4-fluorobenzyl)-2-oxo-2H-chromen-7-yl pentanoate] showed a melting point of 70 to 71 °C. Moreover, at phosphorylated MEK1, the “binding affinity (in words)” value was “inactive”, the inhibition at 2 µM amounted to 42.8% and the inhibition at 20 µM stood at 34%.

The molecule `CCCCC(=O)Oc1ccc2c(C)c(Cc3ccc(F)cc3)c(=O)oc2c1` [Compound 53, 3-(4-Fluorobenzyl)-4-methyl-2-oxo-2H-chromen-7-yl pentanoate] registered a melting point of 83 to 84 °C. Besides, on phosphorylated MEK1, the inhibition at 2 µM was found to be 34.7% and the inhibition at 20 µM turned out to be 38.3%.

Consider `CCCCC(=O)Oc1ccc2c(CCC)c(Cc3ccc(F)cc3)c(=O)oc2c1` [Compound 54, 3-(4-Fluorobenzyl)-2-oxo-4-propyl-2H-chromen-7-yl pentanoate], for which the melting point lay within 68 to 70 °C. On phosphorylated MEK1, the inhibition at 2 µM was found to be 11.7% and the inhibition at 20 µM was 23.9%.

With `Cc1c(Cc2ccccc2)c(=O)oc2cc(OC(=O)C(C)(C)C)ccc12` [Compound 55, 3-Benzyl-4-methyl-2-oxo-2H-chromen-7-yl pivalate], the melting point is 157 to 158 °C. Also, on phosphorylated MEK1, the inhibition at 2 µM amounted to 14.6% and the inhibition at 20 µM came to 14.8%.

For `Cc1c(Cc2ccccc2)c(=O)oc2cc(OC(=O)C(C)(C)C)c(Cl)cc12` [Compound 56, 3-Benzyl-6-chloro-4-methyl-2-oxo-2H-chromen-7-yl pivalate], the melting point was 113 °C. Further, on phosphorylated MEK1, the inhibition at 2 µM is 16.6% and the inhibition at 20 µM turned out to be 34.1%.

`CCc1c(Cc2ccccc2)c(=O)oc2cc(OC(=O)C(C)(C)C)ccc12` [Compound 57, 3-Benzyl-4-ethyl-2-oxo-2H-chromen-7-yl pivalate]: the melting point fell in the range of 105 to 106 °C. Further, at phosphorylated MEK1, the inhibition at 2 µM was 6.61% and the inhibition at 20 µM is 21%.

In turn, `CCCc1c(Cc2ccccc2)c(=O)oc2cc(OC(=O)C(C)(C)C)ccc12` [Compound 58, 3-Benzyl-2-oxo-4-propyl-2H-chromen-7-yl pivalate] returned a melting point of 138 to 139 °C. Besides, at phosphorylated MEK1, the inhibition at 2 µM was 43.2% and the inhibition at 20 µM was 19.1%.

In turn, `CCc1c(Cc2ccc(F)cc2)c(=O)oc2cc(OC(=O)C(C)(C)C)ccc12` [Compound 59, 4-Ethyl-3-(4-fluorobenzyl)-2-oxo-2H-chromen-7-yl pivalate] came in with a melting point of 103 to 104 °C. In addition, on phosphorylated MEK1, the “binding affinity (in words)” value was “inactive”, the inhibition at 2 µM was found to be 45.9% and the inhibition at 20 µM was 23.4%.

The molecule `Cc1c(Cc2ccc(F)cc2)c(=O)oc2cc(OC(=O)C(C)(C)C)ccc12` [Compound 60, 3-(4-Fluorobenzyl)-4-methyl-2-oxo-2H-chromen-7-yl pivalate] yielded a melting point of 136 to 138 °C. Besides, at phosphorylated MEK1, the inhibition at 2 µM was found to be 23.7% and the inhibition at 20 µM amounted to 20.3%.

Molecule `CCCc1c(Cc2ccc(F)cc2)c(=O)oc2cc(OC(=O)C(C)(C)C)ccc12` [Compound 61, 3-(4-Fluorobenzyl)-2-oxo-4-propyl-2H-chromen-7-yl pivalate] registered a melting point of 138 to 140 °C. On phosphorylated MEK1, the inhibition at 2 µM stood at 31.6% and the inhibition at 20 µM stood at 40.9%.

On to `Cc1c(Cc2ccccc2)c(=O)oc2cc(OC(=O)c3ccccc3)ccc12` [Compound 62, 3-Benzyl-4-methyl-2-oxo-2H-chromen-7-yl benzoate], for which the melting point lay within 149 to 150 °C. On phosphorylated MEK1, the inhibition at 2 µM was found to be 4.07% and the inhibition at 20 µM came to 31.1%.

In the case of `Cc1c(Cc2ccccc2)c(=O)oc2cc(OC(=O)c3ccccc3)c(Cl)cc12` [Compound 63, 3-Benzyl-6-chloro-4-methyl-2-oxo-2H-chromen-7-yl benzoate], the melting point was in the range of 133 to 135 °C. Further, on phosphorylated MEK1, the inhibition at 2 µM is 33.3% and the inhibition at 20 µM came to 28%.

`CCc1c(Cc2ccccc2)c(=O)oc2cc(OC(=O)c3ccccc3)ccc12` [Compound 64, 3-Benzyl-4-ethyl-2-oxo-2H-chromen-7-yl benzoate]: the melting point was determined as 138 °C. Besides, at phosphorylated MEK1, the inhibition at 2 µM worked out at 10.1% and the inhibition at 20 µM was found to be 21.5%.

On to `CCCc1c(Cc2ccccc2)c(=O)oc2cc(OC(=O)c3ccccc3)ccc12` [Compound 65, 3-Benzyl-2-oxo-4-propyl-2H-chromen-7-yl benzoate], for which the melting point turned out to be 120 °C. Further, on phosphorylated MEK1, the inhibition at 2 µM amounted to 32.6% and the inhibition at 20 µM stood at 37.1%.

The molecule `Cc1c(Cc2ccc(F)cc2)c(=O)oc2cc(OC(=O)c3ccccc3)ccc12` [Compound 66, 3-(4-Fluorobenzyl)-4-methyl-2-oxo-2H-chromen-7-yl benzoate] had a melting point of 151 to 153 °C. On phosphorylated MEK1, the inhibition at 2 µM was found to be 25.8% and the inhibition at 20 µM was 31%.

Regarding `CCCc1c(Cc2ccc(F)cc2)c(=O)oc2cc(OC(=O)c3ccccc3)ccc12` [Compound 68, 3-(4-Fluorobenzyl)-2-oxo-4-propyl-2H-chromen-7-yl benzoate], the melting point was in the range of 95 to 96 °C. On phosphorylated MEK1, the inhibition at 2 µM amounted to 26.1% and the inhibition at 20 µM turned out to be 45.6%.

As to `Cc1ccc(S(=O)(=O)Oc2ccc3c(C)c(Cc4ccccc4)c(=O)oc3c2)cc1` [Compound 76, 3-Benzyl-4-methyl-2-oxo-2H-chromen-7-yl 4-methylbenzenesulfonate], the melting point is 138 to 139 °C. At phosphorylated MEK1, the inhibition at 2 µM stood at 2.87% and the inhibition at 20 µM is -2.36%.

With `Cc1ccc(S(=O)(=O)Oc2cc3oc(=O)c(Cc4ccccc4)c(C)c3cc2Cl)cc1` [Compound 77, 3-Benzyl-6-chloro-4-methyl-2-oxo-2H-chromen-7-yl 4-methylbenzenesulfonate], the melting point is 173 to 174 °C. Moreover, on phosphorylated MEK1, the inhibition at 2 µM is 31.7% and the inhibition at 20 µM turned out to be 29.6%.

For the molecule `Cc1ccc(S(=O)(=O)Oc2ccc3c(C)c(Cc4ccc(F)cc4)c(=O)oc3c2)cc1` [Compound 81, 3-(4-Fluorobenzyl)-4-methyl-2-oxo-2H-chromen-7-yl 4-methylbenzenesulfonate], the melting point was in the range of 95 to 96 °C. On phosphorylated MEK1, the inhibition at 2 µM was 8.05% and the inhibition at 20 µM stood at 9.55%.

In the case of `COc1ccc2cc(Cc3ccccc3)c(=O)oc2c1` [Compound 83, 3-Benzyl-7-methoxy-2H-chromen-2-one], the melting point was in the range of 102 to 103 °C. Also, on phosphorylated MEK1, the inhibition at 2 µM was 23% and the inhibition at 20 µM came to 2.93%.

With `COc1ccc2cc(Cc3ccc(F)cc3)c(=O)oc2c1` [Compound 84, 3-(4-Fluorobenzyl)-7-methoxy-2H-chromen-2-one], the melting point fell in the range of 94 to 95 °C. On phosphorylated MEK1, the inhibition at 2 µM came to 17.6% and the inhibition at 20 µM worked out at 15.4%.

Molecule `COc1ccc2cc(C(=O)c3ccccc3)c(=O)oc2c1` [Compound 86, 3-benzoyl-7-methoxycoumarin] gave a melting point of 149 to 150 °C. Further, on phosphorylated MEK1, the inhibition at 2 µM was 7.96% and the inhibition at 20 µM was -8.83%.

Take `COc1ccc2c(C#N)c(C(=O)c3ccccc3)c(=O)oc2c1` [Compound 88, 3-Benzoyl-4-cyano-7-methoxycoumarin]: the melting point was 175 to 176 °C. On phosphorylated MEK1, the inhibition at 2 µM amounted to 32.4% and the inhibition at 20 µM came out at 22.9%.

`COc1ccc2c(C(=O)O)c(C(=O)c3ccccc3)c(=O)oc2c1` [Compound 89, 3-Benzoyl-4-carboxy-7-methoxycoumarin] gave a melting point of 196 to 197 °C. Moreover, at phosphorylated MEK1, the inhibition at 2 µM amounted to 16.5% and the inhibition at 20 µM is 6.34%.
